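Cells were grown in 96-well plates and exposed to each compound for 48 hours at five concentrations; endpoints were interpolated linearly between bracketing concentrations, or set to the highest concentration if not reached. GI50 = concentration required for 50% inhibition of growth. TGI: concentration producing complete growth inhibition.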
What was measured:
Assay in all cases: NCI-60 cell line screen, 48 h
MALME-3M melanoma = test system: MALME-3M melanoma
A549 NSCLC = test system: A549 NSCLC
SW-620 colon = test system: SW-620 colon
OVCAR-8 ovarian = test system: OVCAR-8 ovarian
SF-295 CNS = test system: SF-295 CNS
HCT-116 colon = test system: HCT-116 colon
NCI-H460 lung = test system: NCI-H460 lung
HCC-2998 colon = test system: HCC-2998 colon
EKVX NSCLC = test system: EKVX NSCLC
HCT-15 colon = test system: HCT-15 colon
K-562 leukemia = test system: K-562 leukemia
CAKI-1 renal = test system: CAKI-1 renal
SF-539 CNS = test system: SF-539 CNS
COLO 205 colon = test system: COLO 205 colon
BT-549 breast = test system: BT-549 breast
M14 melanoma = test system: M14 melanoma
MOLT-4 leukemia = test system: MOLT-4 leukemia
HL-60(TB) leukemia = test system: HL-60(TB) leukemia
UACC-257 melanoma = test system: UACC-257 melanoma
SK-MEL-28 melanoma = test system: SK-MEL-28 melanoma
RXF 393 renal = test system: RXF 393 renal
786-0 renal = test system: 786-0 renal
A498 renal = test system: A498 renal
T-47D breast = test system: T-47D breast
HS 578T breast = test system: HS 578T breast
PC-3 prostate = test system: PC-3 prostate
SN12C renal = test system: SN12C renal
SK-MEL-5 melanoma = test system: SK-MEL-5 melanoma
NCI-H226 lung = test system: NCI-H226 lung
KM12 colon = test system: KM12 colon
UACC-62 melanoma = test system: UACC-62 melanoma
OVCAR-3 ovarian = test system: OVCAR-3 ovarian
MCF7 breast = test system: MCF7 breast
UO-31 renal = test system: UO-31 renal
HOP-92 NSCLC = test system: HOP-92 NSCLC
RPMI-8226 leukemia = test system: RPMI-8226 leukemia
SK-MEL-2 melanoma = test system: SK-MEL-2 melanoma
MDA-MB-435 = test system: MDA-MB-435
SF-268 CNS = test system: SF-268 CNS
LOX IMVI melanoma = test system: LOX IMVI melanoma
CCRF-CEM leukemia = test system: CCRF-CEM leukemia
OVCAR-5 ovarian = test system: OVCAR-5 ovarian
SK-OV-3 ovarian = test system: SK-OV-3 ovarian
NCI-H522 lung = test system: NCI-H522 lung
HT29 colon = test system: HT29 colon
HOP-62 NSCLC = test system: HOP-62 NSCLC
U251 CNS = test system: U251 CNS
ACHN renal = test system: ACHN renal
MDA-MB-231 breast = test system: MDA-MB-231 breast
TK-10 renal = test system: TK-10 renal
SNB-19 CNS = test system: SNB-19 CNS
IGROV1 ovarian = test system: IGROV1 ovarian
OVCAR-4 ovarian = test system: OVCAR-4 ovarian
DU-145 prostate = test system: DU-145 prostate
NCI/ADR-RES ovarian = test system: NCI/ADR-RES ovarian
SR leukemia = test system: SR leukemia
NCI-H23 lung = test system: NCI-H23 lung
SNB-75 CNS = test system: SNB-75 CNS

O=S1CCN(Cc2ccc(-c3ccc4ncnc(Nc5ccc(OCc6cccc(F)c6)c(Cl)c5)c4c3)o2)CC1
GI50 (MALME-3M melanoma): 6.01 µM | TGI (MALME-3M melanoma): 23.2 µM | GI50 (A549 NSCLC): 5.92 µM | TGI (A549 NSCLC): > 25 µM | GI50 (SW-620 colon): 7.34 µM | TGI (SW-620 colon): > 25 µM | GI50 (OVCAR-8 ovarian): 7.68 µM | TGI (OVCAR-8 ovarian): > 25 µM | GI50 (SF-295 CNS): 5.83 µM | TGI (SF-295 CNS): > 19 µM | GI50 (HCT-116 colon): 8.66 µM | TGI (HCT-116 colon): > 25 µM | GI50 (NCI-H460 lung): 7.62 µM | TGI (NCI-H460 lung): > 25 µM | GI50 (HCC-2998 colon): 5.34 µM | TGI (HCC-2998 colon): 14.7 µM | GI50 (EKVX NSCLC): 0.0304 µM | TGI (EKVX NSCLC): > 25 µM | GI50 (HCT-15 colon): 5.77 µM | TGI (HCT-15 colon): > 25 µM | GI50 (K-562 leukemia): 6.53 µM | TGI (K-562 leukemia): > 25 µM | GI50 (CAKI-1 renal): 0.041 µM | TGI (CAKI-1 renal): > 25 µM | GI50 (SF-539 CNS): 6.54 µM | TGI (SF-539 CNS): > 20.9 µM | GI50 (COLO 205 colon): 4.77 µM | TGI (COLO 205 colon): 13.5 µM | GI50 (BT-549 breast): 6.2 µM | TGI (BT-549 breast): > 23.9 µM | GI50 (M14 melanoma): 5.84 µM | TGI (M14 melanoma): > 18.6 µM | GI50 (MOLT-4 leukemia): 4.94 µM | TGI (MOLT-4 leukemia): > 20.1 µM | GI50 (HL-60(TB) leukemia): 6.3 µM | TGI (HL-60(TB) leukemia): 15.7 µM | GI50 (UACC-257 melanoma): 5.43 µM | TGI (UACC-257 melanoma): > 20.5 µM | GI50 (SK-MEL-28 melanoma): 5.75 µM | TGI (SK-MEL-28 melanoma): > 25 µM | GI50 (RXF 393 renal): 3.85 µM | TGI (RXF 393 renal): > 23.6 µM | GI50 (786-0 renal): 6.54 µM | TGI (786-0 renal): > 25 µM | GI50 (A498 renal): 0.862 µM | TGI (A498 renal): > 16.7 µM | GI50 (T-47D breast): 1.95 µM | TGI (T-47D breast): 18.3 µM | GI50 (HS 578T breast): 4.63 µM | TGI (HS 578T breast): > 21.6 µM | GI50 (PC-3 prostate): 8.91 µM | TGI (PC-3 prostate): > 25 µM | GI50 (SN12C renal): 7.77 µM | TGI (SN12C renal): > 25 µM | GI50 (SK-MEL-5 melanoma): 3.09 µM | TGI (SK-MEL-5 melanoma): 6.42 µM | GI50 (NCI-H226 lung): 4.4 µM | TGI (NCI-H226 lung): > 25 µM | GI50 (KM12 colon): 6.72 µM | TGI (KM12 colon): > 22.8 µM | GI50 (UACC-62 melanoma): 4.12 µM | TGI (UACC-62 melanoma): 10.6 µM | GI50 (OVCAR-3 ovarian): 4.86 µM | TGI (OVCAR-3 ovarian): > 25 µM | GI50 (MCF7 breast): 6.1 µM | TGI (MCF7 breast): > 25 µM | GI50 (UO-31 renal): 0.473 µM | TGI (UO-31 renal): 24.9 µM | GI50 (HOP-92 NSCLC): 3.95 µM | TGI (HOP-92 NSCLC): 22.4 µM | GI50 (RPMI-8226 leukemia): 6.65 µM | TGI (RPMI-8226 leukemia): > 22.8 µM | GI50 (SK-MEL-2 melanoma): 4.41 µM | TGI (SK-MEL-2 melanoma): 9.97 µM | GI50 (MDA-MB-435): 7.1 µM | TGI (MDA-MB-435): > 25 µM | GI50 (SF-268 CNS): 8.56 µM | TGI (SF-268 CNS): > 25 µM | GI50 (LOX IMVI melanoma): 4.65 µM | TGI (LOX IMVI melanoma): 10.5 µM | GI50 (CCRF-CEM leukemia): 6.89 µM | TGI (CCRF-CEM leukemia): 24.8 µM | GI50 (OVCAR-5 ovarian): 5.8 µM | TGI (OVCAR-5 ovarian): > 25 µM | GI50 (SK-OV-3 ovarian): 0.00587 µM | TGI (SK-OV-3 ovarian): > 25 µM | GI50 (NCI-H522 lung): 0.647 µM | TGI (NCI-H522 lung): 15.8 µM | GI50 (HT29 colon): 4.22 µM | TGI (HT29 colon): 10.8 µM | GI50 (HOP-62 NSCLC): 14.8 µM | TGI (HOP-62 NSCLC): > 25 µM | GI50 (U251 CNS): 9.4 µM | TGI (U251 CNS): > 25 µM | GI50 (ACHN renal): 0.082 µM | TGI (ACHN renal): > 25 µM | GI50 (MDA-MB-231 breast): 5.19 µM | TGI (MDA-MB-231 breast): > 16.1 µM | GI50 (TK-10 renal): 0.00776 µM | TGI (TK-10 renal): > 16.3 µM | GI50 (SNB-19 CNS): > 7.82 µM | TGI (SNB-19 CNS): > 25 µM | GI50 (IGROV1 ovarian): 0.226 µM | TGI (IGROV1 ovarian): 5.29 µM | GI50 (OVCAR-4 ovarian): 5.26 µM | TGI (OVCAR-4 ovarian): > 25 µM | GI50 (DU-145 prostate): 4.26 µM | TGI (DU-145 prostate): > 25 µM | GI50 (NCI/ADR-RES ovarian): 4.82 µM | TGI (NCI/ADR-RES ovarian): > 25 µM | GI50 (SR leukemia): 5.38 µM | TGI (SR leukemia): 17.5 µM | GI50 (NCI-H23 lung): 8.42 µM | TGI (NCI-H23 lung): > 25 µM | GI50 (SNB-75 CNS): 7.92 µM | TGI (SNB-75 CNS): > 25 µM
